# System: SARS-CoV-2
# Test: Selectivity ratio of EC50 for antiviral activity against SARS-CoV-2 USA-WA1/2020 infected in human HeLa cells harbouring ACE2 to IC50 for inhibition of C terminal 6 his tagged SARS-CoV-2 main protease expressed in Escherichia coli BL-21-Gold(DE3) cells
# Assay type: functional
# Conditions: not given
row,Structure (SMILES),Selectivity ratio
1,CC1(C)[C@@H]2[C@@H](C(=O)N[C@H](C=O)C[C@@H]3CCNC3=O)N(C(=O)c3cc4ccccc4[nH]3)C[C@@H]21,30
2,CC1(C)C[C@@H](C(=O)N[C@H](C=O)C[C@@H]2CCNC2=O)N(C(=O)c2cc3ccccc3[nH]2)C1,30
3,O=C[C@H](C[C@@H]1CCNC1=O)NC(=O)[C@@H]1C[C@@H](C2CCCCC2)CN1C(=O)c1cc2ccccc2[nH]1,30
4,O=C[C@H](C[C@@H]1CCNC1=O)NC(=O)[C@@H]1CC2(CC2)CN1C(=O)c1cc2ccccc2[nH]1,30

# System: SARS-CoV-2
# Test: Antiviral activity against SARS-CoV-2 USA-WA1/2020 infected in human HeLa cells harbouring ACE2 assessed as reduction in cytopathic effect pretreated with cells followed by viral infection and measured after 24 hrs by fluorescence based analysis
# Assay type: functional, organism-based
# Conditions: Severe acute respiratory syndrome coronavirus 2, USA-WA1/2020, HeLa
row,Structure (SMILES),EC50
1,Cc1cccc2cc(C(=O)N3C[C@H]4[C@@H]([C@H]3C(=O)N[C@H](C=O)C[C@@H]3CCNC3=O)C4(C)C)[nH]c12,1300 nM
2,CC1(C)[C@@H]2[C@@H](C(=O)N[C@H](C=O)C[C@@H]3CCNC3=O)N(C(=O)c3cc4ccccc4[nH]3)C[C@@H]21,2500 nM
3,CCc1cccc2[nH]c(C(=O)N3C[C@H]4[C@@H]([C@H]3C(=O)N[C@H](C=O)C[C@@H]3CCNC3=O)C4(C)C)cc12,630 nM
4,CC1(C)[C@@H]2[C@@H](C(=O)N[C@H](C=O)C[C@@H]3CCNC3=O)N(C(=O)C3(c4cccc(Cl)c4)CC3)C[C@@H]21,90 nM
5,CC1(C)[C@@H]2[C@@H](C(=O)N[C@H](C=O)C[C@@H]3CCNC3=O)N(C(=O)c3cc4c(C#N)cccc4[nH]3)C[C@@H]21,8500 nM
6,CC1(C)C[C@@H](C(=O)N[C@H](C=O)C[C@@H]2CCNC2=O)N(C(=O)c2cc3ccccc3[nH]2)C1,7100 nM
7,CC(C)c1cccc2[nH]c(C(=O)N3C[C@H]4[C@@H]([C@H]3C(=O)N[C@H](C=O)C[C@@H]3CCNC3=O)C4(C)C)cc12,370 nM
8,Cc1cccc([C@@H](C)C(=O)N2C[C@H]3[C@@H]([C@H]2C(=O)N[C@H](C=O)C[C@@H]2CCNC2=O)C3(C)C)c1,170 nM
9,CC1(C)[C@@H]2[C@@H](C(=O)N[C@H](C=O)C[C@@H]3CCNC3=O)N(C(=O)c3cc4ccc(F)cc4[nH]3)C[C@@H]21,1800 nM
10,CC1(C)[C@@H]2[C@@H](C(=O)N[C@H](C=O)C[C@@H]3CCNC3=O)N(C(=O)CC3CCCCC3)C[C@@H]21,340 nM
11,CC1(C)[C@@H]2[C@@H](C(=O)N[C@H](C=O)C[C@@H]3CCNC3=O)N(C(=O)Cc3ccccc3)C[C@@H]21,530 nM
12,O=C[C@H](C[C@@H]1CCNC1=O)NC(=O)[C@@H]1C[C@@H](C2CCCCC2)CN1C(=O)c1cc2ccccc2[nH]1,770 nM
13,CC(C)c1ccc(Cl)c2[nH]c(C(=O)N3C[C@H]4[C@@H]([C@H]3C(=O)N[C@H](C=O)C[C@@H]3CCNC3=O)C4(C)C)cc12,270 nM
14,CC1(C)[C@@H]2[C@@H](C(=O)N[C@H](C=O)C[C@@H]3CCNC3=O)N(C(=O)C3(c4ccccc4)CCCC3)C[C@@H]21,110 nM
15,C[C@@H](C(=O)N1C[C@H]2[C@@H]([C@H]1C(=O)N[C@H](C=O)C[C@@H]1CCNC1=O)C2(C)C)C1CCCCC1,300 nM
16,CC(C)Oc1cccc2[nH]c(C(=O)N3C[C@H]4[C@@H]([C@H]3C(=O)N[C@H](C=O)C[C@@H]3CCNC3=O)C4(C)C)cc12,250 nM
17,CC(C)(C)CC(=O)N1C[C@H]2[C@@H]([C@H]1C(=O)N[C@H](C=O)C[C@@H]1CCNC1=O)C2(C)C,1100 nM
18,Cc1cccc2[nH]c(C(=O)N3C[C@H]4[C@@H]([C@H]3C(=O)N[C@H](C=O)C[C@@H]3CCNC3=O)C4(C)C)cc12,1400 nM

row,Structure (SMILES),EC50
1,CC1CCC(CC(=O)N2C[C@H]3[C@@H]([C@H]2C(=O)N[C@H](C=O)C[C@@H]2CCNC2=O)C3(C)C)CC1 (some centres undefined),160 nM
2,CC1(C)[C@@H]2[C@@H](C(=O)N[C@H](C=O)C[C@@H]3CCNC3=O)N(C(=O)C3(O)CCCCC3)C[C@@H]21,2200 nM
3,CC1(C)[C@@H]2[C@@H](C(=O)N[C@H](C=O)C[C@@H]3CCNC3=O)N(C(=O)c3cc4cccc(Cl)c4[nH]3)C[C@@H]21,300 nM
4,COc1cccc2cc(C(=O)N3C[C@H]4[C@@H]([C@H]3C(=O)N[C@H](C=O)C[C@@H]3CCNC3=O)C4(C)C)[nH]c12,1300 nM
5,CC(C)(C(=O)N1C[C@H]2[C@@H]([C@H]1C(=O)N[C@H](C=O)C[C@@H]1CCNC1=O)C2(C)C)c1ccccc1,343 nM
6,CC(C)c1ccc(F)c2[nH]c(C(=O)N3C[C@H]4[C@@H]([C@H]3C(=O)N[C@H](C=O)C[C@@H]3CCNC3=O)C4(C)C)cc12,120 nM
7,O=C[C@H](C[C@@H]1CCNC1=O)NC(=O)[C@@H]1CC2(CC2)CN1C(=O)c1cc2ccccc2[nH]1,9200 nM
8,CC1(C)[C@@H]2[C@@H](C(=O)N[C@H](C=O)C[C@@H]3CCNC3=O)N(C(=O)c3cc4c(F)cccc4[nH]3)C[C@@H]21,1800 nM
9,CC1(C)[C@@H]2[C@@H](C(=O)N[C@H](C=O)C[C@@H]3CCNC3=O)N(C(=O)c3cc4cccc(C(F)(F)F)c4[nH]3)C[C@@H]21,240 nM
10,CC1(C)[C@@H]2[C@@H](C(=O)N[C@H](C=O)C[C@@H]3CCNC3=O)N(C(=O)C3(c4ccccc4)CC3)C[C@@H]21,196 nM
11,CC1(C)[C@@H]2[C@@H](C(=O)N[C@H](C=O)C[C@@H]3CCNC3=O)N(C(=O)c3cc4cccc(F)c4[nH]3)C[C@@H]21,720 nM
12,CC(C)(C)CCC(=O)N1C[C@H]2[C@@H]([C@H]1C(=O)N[C@H](C=O)C[C@@H]1CCNC1=O)C2(C)C,690 nM
13,COc1cccc2[nH]c(C(=O)N3C[C@H]4[C@@H]([C@H]3C(=O)N[C@H](C=O)C[C@@H]3CCNC3=O)C4(C)C)cc12,8800 nM
14,CC1(C)[C@@H]2[C@@H](C(=O)N[C@H](C=O)C[C@@H]3CCNC3=O)N(C(=O)c3cc4cc(F)ccc4[nH]3)C[C@@H]21,4000 nM
15,C[C@H](C(=O)N1C[C@H]2[C@@H]([C@H]1C(=O)N[C@H](C=O)C[C@@H]1CCNC1=O)C2(C)C)C1CCCCC1,470 nM
16,CC1(C)[C@@H]2[C@@H](C(=O)N[C@H](C=O)C[C@@H]3CCNC3=O)N(C(=O)c3cc4cccc(C#N)c4[nH]3)C[C@@H]21,410 nM
17,C[C@@H](C(=O)N1C[C@H]2[C@@H]([C@H]1C(=O)N[C@H](C=O)C[C@@H]1CCNC1=O)C2(C)C)c1ccccc1,300 nM

# — ChEMBL document CHEMBL5550108, “Exploiting high-energy hydration sites for the discovery of potent peptide aldehyde inhibitors of the SARS-CoV-2 main protease with cellular antiviral activity” (Bioorg Med Chem, 2024)
